{"source": "patent US20090005385A1", "about": "“Treatment or Prevention of Cancer or Cardiovascular Disease with Methenyltetrahydrofolate Synthetases” (CORNELL RESEARCH FOUNDATION, INC., priority 2004, published 2009)", "key": {"cell cultures": {"system": "cell cultures", "details": "substrate for FPGS; cited from earlier work"}, "MCF-7 cells [1]": {"system": "MCF-7 cells", "experiment": "Folate turnover in cultured cells (pulse-chase)", "assay_type": "cell-based, human", "details": "20 μM in chase medium", "procedure": "Cell monolayers at 75% confluence were washed with PBS, then labeled for 12 h in defined αMEM lacking folate and glycine and supplemented with 25 nM (6S)-[^3H]5-formylTHF. For the chase, cell monolayers were washed with 10 ml of PBS, trypsinized, and pelleted by centrifugation. The cells were seeded in triplicate (1×10^6 cells) into 100 mm culture plates containing 10 ml of defined αMEM supplemented with 2 μM folic acid. Catecholamines (20 μM dopamine, NADA, and L-dopa) were prepared freshly and added to the chase media prior to the addition of labeled cells. Cells were harvested at defined time points, the medium was removed and the tritium in the medium was quantified. The cell monolayers were washed with PBS and lysed with 0.2 M ammonium hydroxide. Tritium remaining in the cells was quantified using a Beckman LS 8100 liquid scintillation counter.\nCatecholamine availability may be rate limiting for MTHFS-catalyzed folate catabolism in MCF-7 cells. The effects of exogenous catecholamines on folate turnover rates were determined using pulse-chase analyses in MCF-7 cells. Folate turnover in MCF-7 cells labeled with [^3H]-5-formylTHF is biphasic, with an initial rapid phase of turnover followed by a slower phase (Anguera et al., J. Biol. Chem. 278:29856-29862 (2003), which is hereby incorporated by reference in its entirety). Addition of 20 μM NADA to the chase medium increased the magnitude of the rapid phase of folate turnover by 12% compared to untreated cells (FIG. 11A). […] To distinguish between these two mechanisms, 20 μM dopamine and L-dopa were added to the chase medium. Dopamine is the precursor of NADA, and both dopamine and L-dopa can function as oxidants following oxidation of their diphenolic ring generating dopamine-quinone or dopa-quinone (Rescigno et al., Biochemical Pharmacology 56:1089-1096 (1998); Graham, D. G. Mol. Pharmacol. 14:633-643 (1978), which are hereby incorporated by reference in their entirety). […] The addition of dopamine to the culture medium increased the magnitude of the rapid phase of folate turnover by only 4% relative to untreated cells (FIG. 11A). The minor effect of dopamine on folate turnover may reflect N-acetyltransferase-mediated dopamine acetylation that generating NADA. […] In summary, the pulse chase experiments indicate that NADA may be limiting for in vivo folate catabolism, and NADA may function specifically as the electron acceptor molecule for MTHFS-mediated folate catabolism."}, "MCF-7 cells [2]": {"system": "MCF-7 cells", "experiment": "Radiolabeled folate accumulation in cultured cells treated with catecholamines", "assay_type": "cell-based, human", "details": "12 h, 25 nM (6S)-[^3H]-5-formylTHF, 0-150 μM catecholamine", "procedure": "(§1) Cell monolayers at 70% confluence in 6-well plates were labeled for 12 h in defined αMEM lacking folate and glycine, but supplemented with 25 nM (6S)-[^3H]5-formylTHF and 0, 25 μM, 50 μM, 75 μM, 100 μM, or 150 μM NADA, dopamine, or epinephrine. Cells were harvested by washing with 5 mL PBS, trypsinized, and pelleted by centrifugation and viable cells (determined by their ability to exclude trypan blue) were quantified. The cell pellets were lysed with 0.2 M ammonium hydroxide, and the intracellular tritium was quantified using a Beckman LS 8100 liquid scintillation counter.\nBecause the addition of NADA to the chase medium increased folate turnover rates in MCF-7 cells, the effects of various catecholamines on [^3H]folate accumulation was investigated. Cells were cultured for 12 h in defined αMEM medium containing 25 nM (6S)-[^3H]-5-formylTHF and various concentrations of NADA, dopamine, and epinephrine, and cellular [^3H]folate content was determined."}, "MTHFS": {"system": "MTHFS", "experiment": "Inhibition of MTHFS-catalyzed conversion of 5-formylTHF to 5,10-methenylTHF (spectrophotometric assay)", "assay_type": "biochemical", "procedure": "Tissue samples were sonicated four times for 15 s in a buffer containing 100 mM HEPES pH 7.0, 100 mM sodium chloride, 5 mM EDTA, 1% Tween-20. The solution was clarified by centrifugation. MTHFS activity was determined using a spectrophotometer by monitoring the appearance of 5,10-methenyltetrahydrofolate, which has an absorbance maximum at 355 nm. For a typical assay, 50 μL of clarified tissue supernatant was added to a quartz cuvette containing 100 μM (6S)-5-formylTHF, 1 mM Mg-ATP and 100 mM MES, pH 6.0 and the rate of 5,10-methenylTHF formation was quantified. Activity measurements were normalized to total protein that was quantified using the Lowry-Bensadoun method (Bensadoun et al., “Assay of Proteins in the Presence of Interfering Materials,” Anal Biochem 70:241-250 (1976), which is hereby incorporated by reference in its entirety).\nThe UV spectrum of purified rabbit liver MTHFS differs from the spectrum of recombinant mouse MTHFS (FIG. 4). Therefore, it was investigated whether rabbit liver MTHFS could be reconstituted with NADA resulting in a change in the UV spectrum of the protein. […]"}, "MCF-7 cells [3]": {"system": "MCF-7 cells", "experiment": "Cell viability (trypan blue) after catecholamine treatment", "assay_type": "cell-based, human", "details": "12 h, various concentrations", "procedure": "FIG. 12A-B show the effect of NADA, dopamine, and epinephrine on folate accumulation and cell viability in MCF-7 cells. MCF-7 cells were incubated with 25.0 nM (6S)-[^3H]5-formylTHF and various concentrations of NADA, dopamine, and epinephrine for 12 h, then viable cells were quantified using trypan blue staining. […] All values were normalized to cpm for untreated cells, and untreated cells were given an arbitrary value of 100%. […] Cell viability is expressed as the percent of viable cells divided by the total number of cells. Total [^3H]folate compounds were quantified in cell lysates by liquid scintillation. All values represent quadruplicate measures, and error bars are standard deviations of the mean.\nas §1"}, "[4]": {"target": "T1, recombinant mouse MTHFS protein (Mus musculus, UniProt Q9D110)", "T1 sequence (Q9D110 1-203)": "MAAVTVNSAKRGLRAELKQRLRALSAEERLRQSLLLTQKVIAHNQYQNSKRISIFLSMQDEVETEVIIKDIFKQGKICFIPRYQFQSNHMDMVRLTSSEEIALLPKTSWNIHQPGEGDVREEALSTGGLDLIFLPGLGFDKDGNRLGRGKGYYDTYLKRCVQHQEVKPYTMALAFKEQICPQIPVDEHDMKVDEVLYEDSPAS", "details": "equilibrium binding"}, "mouse enzyme GARFT": {"target": "mouse enzyme GARFT (Mus musculus, UniProt Q64737)", "sequence (Q64737 whole entry)": "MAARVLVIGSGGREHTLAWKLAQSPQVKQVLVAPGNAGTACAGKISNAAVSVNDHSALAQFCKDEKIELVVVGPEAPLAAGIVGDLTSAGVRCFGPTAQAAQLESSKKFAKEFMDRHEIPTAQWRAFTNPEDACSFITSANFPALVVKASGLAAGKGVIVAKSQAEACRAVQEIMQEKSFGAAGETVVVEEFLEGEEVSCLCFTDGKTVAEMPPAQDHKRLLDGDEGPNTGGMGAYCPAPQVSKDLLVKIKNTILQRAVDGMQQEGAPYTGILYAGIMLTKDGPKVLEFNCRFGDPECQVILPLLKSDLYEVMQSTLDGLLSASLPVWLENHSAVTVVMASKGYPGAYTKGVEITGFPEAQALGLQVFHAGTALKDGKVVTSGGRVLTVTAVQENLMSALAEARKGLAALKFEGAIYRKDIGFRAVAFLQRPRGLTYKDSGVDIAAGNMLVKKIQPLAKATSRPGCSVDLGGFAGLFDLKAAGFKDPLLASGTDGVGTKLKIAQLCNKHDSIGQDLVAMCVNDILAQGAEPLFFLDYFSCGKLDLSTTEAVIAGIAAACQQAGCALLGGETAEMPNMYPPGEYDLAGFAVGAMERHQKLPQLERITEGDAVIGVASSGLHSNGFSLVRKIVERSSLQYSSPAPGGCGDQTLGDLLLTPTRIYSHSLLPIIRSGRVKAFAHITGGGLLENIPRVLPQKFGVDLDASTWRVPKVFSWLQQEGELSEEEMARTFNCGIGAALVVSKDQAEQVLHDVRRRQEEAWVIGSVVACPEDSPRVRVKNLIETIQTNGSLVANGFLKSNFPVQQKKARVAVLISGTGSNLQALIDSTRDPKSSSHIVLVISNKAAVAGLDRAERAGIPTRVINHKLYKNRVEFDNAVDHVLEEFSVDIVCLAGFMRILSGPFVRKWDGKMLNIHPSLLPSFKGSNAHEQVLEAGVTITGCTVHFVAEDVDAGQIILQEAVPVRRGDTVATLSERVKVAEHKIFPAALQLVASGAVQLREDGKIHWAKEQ", "details": "read-out: Ki mouse GARFT; cited from earlier work"}}}
{"smiles": "Nc1nc(N)c(CCCC(C=O)c2ccc(C(=O)N[C@@H](CCC(=O)O)C(=O)O)cc2)c(=O)[nH]1", "note": "(stereo partly shown) [10-formyl-DDACTHF, 10-formyl-5,10-dideaza-acyclicTHF]", "values": [{"measurement": "accumulation in cell cultures", "setting": "cell cultures", "result": "over 100 fold"}]}
{"smiles": "CC(=O)NCCc1ccc(O)c(O)c1", "note": "[NADA, N-acetyldopamine]", "values": [{"measurement": "increase in magnitude of the rapid phase of folate turnover compared to untreated cells", "setting": "MCF-7 cells [1]", "result": 12, "unit": "%"}, {"measurement": "slow phase of folate turnover relative to untreated cells", "setting": "MCF-7 cells [1]", "result": "did not change"}, {"measurement": "[^3H]folate accumulation", "setting": "MCF-7 cells [2]", "result": "decreased [^3H]folate accumulation in a dose-dependent manner"}, {"measurement": "inhibition of MTHFS-catalyzed conversion of 5-formylTHF to 5,10-methenylTHF", "setting": "MTHFS", "result": "did not inhibit"}, {"measurement": "cell viability", "setting": "MCF-7 cells [3]", "result": "NADA-induced cell death"}]}
{"smiles": "NCCc1ccc(O)c(O)c1", "note": "[dopamine]", "values": [{"measurement": "binding to recombinant mouse MTHFS protein", "setting": "[4]", "result": "neither dopamine nor oxidized dopamine bind"}, {"measurement": "increase in magnitude of the rapid phase of folate turnover compared to untreated cells", "setting": "MCF-7 cells [1]", "result": 4, "unit": "%"}, {"measurement": "[^3H]folate accumulation", "setting": "MCF-7 cells [2]", "result": "Neither the addition of dopamine nor epinephrine to culture media impaired [^3H]folate accumulation"}]}
{"smiles": "Nc1nc2c(c(=O)[nH]1)C[C@@H](CCc1ccc(C(=O)N[C@@H](CCC(=O)O)C(=O)O)cc1)CN2", "note": "[DDATHF, 5,10-dideazatetrahydrofolate]", "values": [{"measurement": "Ki", "setting": "mouse enzyme GARFT", "result": 6, "unit": "nM"}]}
